# Assay results published in publication PMC8119466, “A screen of FDA-approved drugs identifies inhibitors of protein tyrosine phosphatase 4A3 (PTP4A3 or PRL-3)” (Scientific Reports, 2021).
# Structures can show the parent of a compound that is named as a salt. Where two headings read alike, the source gives them in different places.
# Columns and labels:
# Type in all cases: biochemical
# recombinant PRL-1 = target: T1, recombinant PRL-1 (Homo sapiens, UniProt Q93096); test: In vitro phosphatase assay (DiFMUP hydrolysis), PRL-1; also: test concentration or dose not given here
# T1 construct: 6xHis (N, cleaved yes); made in house; host or cells: E. coli One Shot BL21 Star
# T1 sequence (Q93096 1-173): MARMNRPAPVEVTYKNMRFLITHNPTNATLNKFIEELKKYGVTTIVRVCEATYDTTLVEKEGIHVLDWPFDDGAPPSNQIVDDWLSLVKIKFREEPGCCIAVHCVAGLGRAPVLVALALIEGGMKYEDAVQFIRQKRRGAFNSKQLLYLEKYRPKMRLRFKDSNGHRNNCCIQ
# recombinant PRL-3 = target: T2, recombinant PRL-3 (Homo sapiens, UniProt O75365); test: In vitro phosphatase assay (DiFMUP hydrolysis), PRL-3; also: test concentration or dose not given here
# T2 construct: 6xHis (N, cleaved yes); made in house; host or cells: E. coli One Shot BL21 Star
# recombinant PRL-2 = target: T3, recombinant PRL-2 (Homo sapiens, UniProt Q12974); test: In vitro phosphatase assay (DiFMUP hydrolysis), PRL-2;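 also: PRL-2 activity read as DiFMUP hydrolysis after 20 min at room temperature with drug, enzyme first pre-reduced at 4 °C for 20 min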
# T3 construct: 6xHis (N, cleaved yes); made in house; host or cells: E. coli One Shot BL21 Star
# T3 sequence (Q12974 1-167): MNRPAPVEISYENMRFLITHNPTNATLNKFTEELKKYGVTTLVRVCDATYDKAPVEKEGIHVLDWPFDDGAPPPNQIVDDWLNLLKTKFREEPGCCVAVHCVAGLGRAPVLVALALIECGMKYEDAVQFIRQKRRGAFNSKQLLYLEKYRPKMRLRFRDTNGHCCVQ
# [1] = FDA-approved drug screen, activity compared to DMSO
# [2] = FDA-approved drug screen, compared to DMSO
# T2 sequence (O75365 whole entry): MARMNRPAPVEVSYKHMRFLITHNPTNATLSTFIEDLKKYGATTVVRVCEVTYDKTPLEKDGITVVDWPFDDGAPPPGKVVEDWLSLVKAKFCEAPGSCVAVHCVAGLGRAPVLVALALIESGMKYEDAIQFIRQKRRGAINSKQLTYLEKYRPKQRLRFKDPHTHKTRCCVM
Structure (SMILES),% Phosphatase Activity (compared to DMSO) PRL-1 (recombinant PRL-1; [2]) [%],% Phosphatase Activity (compared to DMSO) PRL-3 (recombinant PRL-3; [2]) [%],% Phosphatase Activity (compared to DMSO) PRL-2 (recombinant PRL-2; [2]) [%],other results
O=c1ccn([C@@H]2O[C@H](CO)[C@@H](O)[C@H]2O)c(=O)[nH]1 [Uridine],,,,% Phosphatase Activity (compared to DMSO) PRL-1 (recombinant PRL-1; [1]): 86%; % Phosphatase Activity (compared to DMSO) PRL-3 (recombinant PRL-3; [1]): 94%; % Phosphatase Activity (compared to DMSO) PRL-2 (recombinant PRL-2; [1]): 97%
C#C[C@]1(O)CC[C@H]2[C@@H]3CCc4cc(O)ccc4[C@H]3CC[C@@]21C [Ethinyl Estradiol],99,75,99,
C[C@]1(Cn2ccnn2)[C@H](C(=O)O)N2C(=O)C[C@H]2S1(=O)=O [Tazobactam],,,,% Phosphatase Activity (compared to DMSO) PRL-1 (recombinant PRL-1; [1]): 102%; % Phosphatase Activity (compared to DMSO) PRL-3 (recombinant PRL-3; [1]): 86%; % Phosphatase Activity (compared to DMSO) PRL-2 (recombinant PRL-2; [1]): 103%
CN(C)CCOC(c1ccc(Cl)cc1)c1ccccn1.O=C(O)/C=C\C(=O)O (stereo not drawn) [ArbinoxaMine Maleate],100,91,77,
CC(=O)OCC(=O)[C@H]1CC[C@H]2[C@@H]3CCC4=CC(=O)CC[C@]4(C)[C@H]3CC[C@]12C [Deoxycorticosterone acetate],84,74,83,
C=CC(=O)Nc1cc(Nc2nccc(-c3cn(C)c4ccccc34)n2)c(OC)cc1N(C)CCN(C)C [AZD9291],88,100,89,
CC(C)(C)NC(=O)[C@H]1CC[C@H]2[C@@H]3CC[C@H]4NC(=O)C=C[C@]4(C)[C@H]3CC[C@]12C [Finasteride],93,81,87,
CCCCc1ncc(/C=C(\Cc2cccs2)C(=O)O)n1Cc1ccc(C(=O)O)cc1 [Eprosartan Mesylate],89,72,100,
Cc1nnc(NS(=O)(=O)c2ccc(N)cc2)s1 [Sulfamethizole],,,,% Phosphatase Activity (compared to DMSO) PRL-1 (recombinant PRL-1; [1]): 88%; % Phosphatase Activity (compared to DMSO) PRL-3 (recombinant PRL-3; [1]): 92%; % Phosphatase Activity (compared to DMSO) PRL-2 (recombinant PRL-2; [1]): 99%
CNS(=O)(=O)C[C@H]1CC[C@H](N(C)c2ncnc3[nH]ccc23)CC1 [Oclacitinib],98,80,81,
Nc1ncn([C@H]2C[C@H](O)[C@@H](CO)O2)c(=O)n1 [Decitabine],114,81,93,
CCc1cc(C(N)=S)ccn1 [Ethionamide],,,,% Phosphatase Activity (compared to DMSO) PRL-1 (recombinant PRL-1): 91%; % Phosphatase Activity (compared to DMSO) PRL-3 (recombinant PRL-3): 91%; % Phosphatase Activity (compared to DMSO) PRL-2 (recombinant PRL-2): 101%
C[C@@H](O)[C@@H]1NC(=O)[C@H](CCCCN)NC(=O)[C@@H](Cc2c[nH]c3ccccc23)NC(=O)[C@H](Cc2ccccc2)NC(=O)[C@@H](NC(=O)[C@H](N)Cc2ccccc2)CSSC[C@@H](C(=O)N[C@H](CO)[C@@H](C)O)NC1=O [Octreotide Acetate],99,93,90,
CC(=O)NC(CC(C)C)C(=O)O (stereo not drawn) [Acetylleucine],110,89,99,
COc1ccc2cc(CCC(C)=O)ccc2c1 [Nabumetone],91,68,102,
O=c1ccc2ccccc2o1 [Coumarin],92,76,98,
CC[C@H]1OC(=O)[C@H](C)[C@@H](O[C@H]2C[C@@](C)(OC)[C@@H](O)[C@H](C)O2)[C@H](C)[C@@H](O[C@@H]2O[C@H](C)C[C@H](N(C)C)[C@H]2O)[C@](C)(O)C[C@@H](C)CN(C)[C@H](C)[C@@H](O)[C@]1(C)O [Azithromycin Dihydrate],98,73,99,
NC[C@H](O)c1ccc(O)c(O)c1.O.O=C(O)C(O)C(O)C(=O)O [Noradrenaline bitartrate monohydrate],103,88,120,
CN1CCC(=C2c3ccccc3C=Cc3ccccc32)CC1 [Cyproheptadine hydrochloride],93,84,102,
CN1CCN(CCOc2cc(OC3CCOCC3)c3c(Nc4c(Cl)ccc5c4OCO5)ncnc3c2)CC1 [Saracatinib (AZD0530)],99,79,98,
CCc1c2c(nc3ccc(OC(=O)N4CCC(N5CCCCC5)CC4)cc13)-c1cc3c(c(=O)n1C2)COC(=O)[C@]3(O)CC [Irinotecan],4706,3887,5728,
NC(=O)N1CCC(CC(=O)N2CCC([C@H]3c4ncc(Br)cc4CCc4cc(Cl)cc(Br)c43)CC2)CC1 [Lonafarnib],97,97,103,
CC[C@H]1OC(=O)[C@H](C)[C@@H](O[C@H]2C[C@@](C)(OC)[C@@H](O)[C@H](C)O2)[C@H](C)[C@@H](O[C@@H]2O[C@H](C)C[C@H](N(C)C)[C@H]2O)[C@](C)(O)C[C@@H](C)C(=O)[C@H](C)[C@@H](O)[C@]1(C)O [Erythromycin],91,79,93,
NC(=O)NO [Hydroxyurea],91,100,113,
O=C(O)/C=C/c1ccc(Cn2ccnc2)cc1 [Ozagrel],96,76,101,
COc1ccc(-c2nc3ccc(C4=NNC(=O)CC4C)cc3[nH]2)cc1 (stereo not drawn) [Pimobendan],122,95,118,
O=c1oc2c(O)c(O)cc3c(=O)oc4c(O)c(O)cc1c4c23 [Ellagic acid],98,68,89,
C=C1C[C@@H]2[C@H](CC[C@]3(C)C(=O)CC[C@@H]23)[C@@]2(C)C=CC(=O)C=C12 [Exemestane],95,87,116,
OCCN1C[C@H](O)[C@@H](O)[C@H](O)[C@H]1CO [Miglitol],114,88,120,
